Measurements from ChEMBL document CHEMBL1201862, “PubChem BioAssay data set” (2004).
The source made the active and inactive calls.

Columns and labels:
[1] = biological target: Dual specificity tyrosine-phosphorylation-regulated kinase 1A (Rattus norvegicus, UniProt Q63470); type: biochemical, Homo sapiens
[2] = biological target: Beta-adrenergic receptor kinase 1 (Homo sapiens, UniProt P25098); test: aptamer displacement from bead-bound GRK2 – biochemical, cherry pick 1, bead flow cytometry, dose response (AID 504500)
[3] = biological target: Exodeoxyribonuclease V (Escherichia coli (strain K12), UniProt P04993+P07648+P08394); test: RecBCD inhibition via phage-restricted bacterial growth – absorbance, V66 E. coli, mutant T4 phage, counter-screen for AddAB inhibitor project, dose response (AID 492957); type: functional, cell-based, Escherichia coli str. K-12 substr. MG1655
[4] = biological target: Cystic fibrosis transmembrane conductance regulator/Golgi-associated PDZ and coiled-coil motif-containing protein (Homo sapiens, UniProt P13569+Q9HD26); test: potency against CAL PDZ-peptide interaction – biochemical, fluorescence polarization, Cerulean-tagged CAL PDZ, cherry-picks, dose response (AID 504773)
[5] = Counterscreen for AddAB inhibitors: absorbance-based bacterial cell-based high throughput dose response assay for inhibitors of bacterial viability. [Related pubchem assays (depositor defined):AID435030, AID449728, AID449731, AID488942, AID488955, AID488956]; type: functional
[6] = tested on: INS1; test: INS-1E survival protection against cytokine death – cell-based, luminescence, retest, dose response (AID 449756); type: functional; details: Rattus norvegicus;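 also: cell death triggered by IL-1 beta plus TNF-alpha plus IFN-gamma mixture; protective hits raise ATP signal compared with cytokine alone wells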
[7] = biological target: G-protein coupled receptor 55 (Homo sapiens, UniProt Q9Y2T6); test: selective activators of receptor GPR55 – imaging, U2OS cells, beta-arrestin-GFP redistribution, primary screen (AID 1961); type: functional
[8] = biological target: Voltage-gated inwardly rectifying potassium channel KCNH2 (Homo sapiens, UniProt Q12809); details: Potency;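 also: confirmatory quantitative high-throughput screen measuring inhibition of hERG channel activity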
[9] = tested on: HEK293; test: SAR Analysis of small molecule inhibitors of T-cell specific antigen receptor-induced NF-kB activation in a HEK-293T cell line using a luminescence assay - Set 2. [Related pubchem assays (depositor defined):AID435003, AID435012, AID489026]; type: functional, cell-based; details: Homo sapiens
[10] = tested on: Jurkat; test: SAR Analysis of small molecule inhibitors of T-cell specific antigen receptor-induced NF-kB activation in a Jurkat cell line using a luminescence assay - Set 2. [Related pubchem assays (depositor defined):AID435003, AID435012, AID465]; type: functional, cell-based; details: Homo sapiens
[11] = tested on: HEK293; test: HEK293T cell viability loss, resazurin readout – resazurin fluorescence, cytotoxicity control for NF-kB activator project, SAR follow-up (AID 493251); type: functional, cell-based; details: Homo sapiens
[12] = tested on: Escherichia coli; test: microbe, parasite or virus in culture
[13] = tested on: Streptococcus; test: GAS UMAA2166 growth inhibition – luminescence, BacTiterGlo, counter-screen for streptokinase expression inhibitor project, dose response (AID 1915); type: functional, organism-based;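 also: potency for reduction of bacterial viability or growth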
[14] = tested on: Streptococcus sp. 'group A'; test: Streptococcus pyogenes SK(-)GAS viability under kanamycin – luminescence, BacTiterGlo, confirmation, counter-screen for streptokinase expression inhibitor project, dose response (AID 1900); type: functional, organism-based
[15] = biological target: T1, DNA repair and recombination protein RAD54-like (Homo sapiens, UniProt Q92698); test: RAD54 Holliday junction migration blockers – biochemical, fluorescence, cherry-picked samples, dose series, confirmation (AID 651657); type: functional
T1 sequence (Q92698 whole entry): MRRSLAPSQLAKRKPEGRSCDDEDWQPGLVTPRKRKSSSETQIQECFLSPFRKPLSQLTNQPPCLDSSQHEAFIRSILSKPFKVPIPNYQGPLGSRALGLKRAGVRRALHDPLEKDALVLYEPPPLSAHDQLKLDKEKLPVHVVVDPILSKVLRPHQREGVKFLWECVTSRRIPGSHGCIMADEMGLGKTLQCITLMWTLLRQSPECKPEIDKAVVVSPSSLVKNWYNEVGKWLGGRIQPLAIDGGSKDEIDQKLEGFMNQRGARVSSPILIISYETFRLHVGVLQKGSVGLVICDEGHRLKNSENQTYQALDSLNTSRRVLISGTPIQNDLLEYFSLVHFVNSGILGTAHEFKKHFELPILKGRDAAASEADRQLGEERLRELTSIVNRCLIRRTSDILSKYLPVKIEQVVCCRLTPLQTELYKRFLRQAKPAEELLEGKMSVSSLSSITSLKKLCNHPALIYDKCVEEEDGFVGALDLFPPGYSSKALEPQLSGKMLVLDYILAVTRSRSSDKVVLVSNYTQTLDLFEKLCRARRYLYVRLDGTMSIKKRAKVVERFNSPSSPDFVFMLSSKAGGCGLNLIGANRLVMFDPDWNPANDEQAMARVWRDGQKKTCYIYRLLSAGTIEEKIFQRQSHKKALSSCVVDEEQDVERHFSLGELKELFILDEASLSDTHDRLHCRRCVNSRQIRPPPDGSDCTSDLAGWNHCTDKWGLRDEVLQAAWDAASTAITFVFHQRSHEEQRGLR

[16] = tested on: Escherichia coli; test: microbe, parasite or virus in culture; remark: listed apart in the source
[17] = cells; type: functional
[18] = biological target: T2, Dual specificity protein phosphatase 3 (Homo sapiens, UniProt P51452); test: VHR1 phosphatase inhibitors, biochemical (AID 1878)
[19] = biological target: T3, Dual specificity protein phosphatase 6 (Rattus norvegicus, UniProt Q64346); test: inhibition of rat DUSP6 enzyme activity – biochemical, in vitro, primary screen (AID 425)
T3 sequence (Q64346 whole entry): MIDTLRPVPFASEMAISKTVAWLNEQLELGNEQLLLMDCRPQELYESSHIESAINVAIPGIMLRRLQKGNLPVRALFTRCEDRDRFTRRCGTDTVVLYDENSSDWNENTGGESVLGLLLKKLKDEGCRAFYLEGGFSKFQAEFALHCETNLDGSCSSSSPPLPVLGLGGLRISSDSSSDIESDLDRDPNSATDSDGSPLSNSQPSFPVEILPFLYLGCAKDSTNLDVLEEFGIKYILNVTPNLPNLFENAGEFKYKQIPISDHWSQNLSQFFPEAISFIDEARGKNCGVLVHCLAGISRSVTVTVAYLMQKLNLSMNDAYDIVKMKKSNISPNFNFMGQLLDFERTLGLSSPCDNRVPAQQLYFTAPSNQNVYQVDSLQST

[20] = biological target: Nonstructural protein 1 (Influenza A virus, UniProt Q194T2); type: functional, Influenza A virus (A/California/07/2009(H1N1))
[21] = biological target: T4, Small ubiquitin-related modifier 1 (Homo sapiens, UniProt P63165); test: SUMO1 protein interaction blockers, potency – biochemical, fluorescence polarization, uHTS hits, dose response (AID 624382); type: functional; details: read-out: IC50_Mean
[22] = CCR5-tropic HIV-1 fusion blockers – cell-based, CCR5-tropic Env, dose response (AID 2279); type: functional
[23] = biological target: Eukaryotic translation initiation factor 4E (Mus musculus, UniProt P63073); test: blockers of eIF4G binding by eIF4E – biochemical, TR-FRET, dose response (AID 855); type: functional;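 also: potency for disrupting eIF4E binding to eIF4GI seen as loss of FRET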
[24] = biological target: T2, Dual specificity protein phosphatase 3; test: VHR1 phosphatase inhibitors, primary screen, biochemical, absorbance, uHTS (AID 1654)
[25] = biological target: DNA (cytosine-5)-methyltransferase 1 (Homo sapiens, UniProt P26358); test: inhibition of DNA methylation by DNMT1 – biochemical, fluorescent molecular beacon, confirmation (AID 602386); type: functional
[26] = tested on: Vero; test: viability of Vero cells under compound – cytotoxicity control for flavivirus capping enzyme inhibitors (AID 588742); type: functional; details: Chlorocebus sabaeus
[27] = biological target: Genome polyprotein (dengue virus type 2, UniProt P29990); test: flavivirus cap methylation enzyme inhibition – biochemical, confirmation dose response, primary screen (AID 588689); type: functional
[28] = biological target: Envelope glycoprotein gp160 (Human immunodeficiency virus 1, UniProt Q6QLK5); test: cell-free HIV fusion peptide-binding blockers – biochemical, uHTS, fluorescence dequenching, […] (AID 1986)
[29] = biological target: T4, Small ubiquitin-related modifier 1; test: SUMO1 protein-protein binding blockers, potency – biochemical, FRET, dose response (AID 624383); type: functional; details: read-out: IC50_Mean
[30] = PAR1 agonist-induced platelet activation inhibition – cell-based, fluorescence, flow cytometry, human platelets, dose response (AID 2511); type: functional
[31] = blockers of SFLLRN-triggered platelet ATP secretion – cell-based, human platelets, luminescence, dry powder, dose response (AID 493100); type: functional
[32] = Luminescence Cell-Based Dose Response Follow up to Identify Inhibitors of Platelet Dense Granule Release. [Related pubchem assays (depositor defined):AID1663, AID1678, AID2398]; type: functional
[33] = biological target: T5, Hexokinase HKDC1 (Homo sapiens, UniProt Q2TB90); test: analog inhibition of human HKDC1 activity – biochemical, set 2, SAR follow-up (AID 588355); type: functional
T5 sequence (Q2TB90 whole entry): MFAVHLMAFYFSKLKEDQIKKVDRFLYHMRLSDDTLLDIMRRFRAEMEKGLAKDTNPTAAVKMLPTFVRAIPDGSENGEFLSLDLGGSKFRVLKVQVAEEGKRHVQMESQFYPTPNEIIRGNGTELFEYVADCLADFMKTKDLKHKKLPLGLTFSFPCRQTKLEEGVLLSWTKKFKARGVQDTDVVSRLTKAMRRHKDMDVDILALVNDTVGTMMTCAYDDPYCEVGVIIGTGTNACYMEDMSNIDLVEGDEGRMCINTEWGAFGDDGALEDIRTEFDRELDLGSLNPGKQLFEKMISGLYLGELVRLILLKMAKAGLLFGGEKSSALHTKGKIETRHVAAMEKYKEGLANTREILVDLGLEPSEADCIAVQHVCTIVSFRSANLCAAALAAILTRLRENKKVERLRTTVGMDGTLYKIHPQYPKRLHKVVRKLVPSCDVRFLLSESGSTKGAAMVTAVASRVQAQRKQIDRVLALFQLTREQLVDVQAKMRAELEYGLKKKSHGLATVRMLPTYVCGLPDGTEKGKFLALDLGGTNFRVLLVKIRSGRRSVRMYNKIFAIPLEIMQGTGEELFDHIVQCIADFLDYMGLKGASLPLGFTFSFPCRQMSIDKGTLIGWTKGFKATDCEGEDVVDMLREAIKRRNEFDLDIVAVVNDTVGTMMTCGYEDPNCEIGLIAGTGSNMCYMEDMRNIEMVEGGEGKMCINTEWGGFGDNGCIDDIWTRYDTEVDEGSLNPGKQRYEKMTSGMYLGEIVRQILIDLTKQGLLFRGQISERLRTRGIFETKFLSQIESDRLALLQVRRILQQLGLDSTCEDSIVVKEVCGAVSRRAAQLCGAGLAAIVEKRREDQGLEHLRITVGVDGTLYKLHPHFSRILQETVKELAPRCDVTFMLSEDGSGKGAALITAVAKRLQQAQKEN

[34] = biological target: Hexokinase-1 (Homo sapiens, UniProt P19367); test: hexokinase 1 activity inhibitors, potency – biochemical, set 2, resazurin fluorescence coupled readout, selectivity assay for HKDC1 inhibitor project, SAR follow-up (AID 588356); type: functional
[35] = biological target: DNA topoisomerase (Yersinia pestis, UniProt A0A2S9PM60); test: Yersinia topoisomerase I cleavage product accumulation – biochemical, cherry-pick, dose response (AID 588525)
[36] = tested on: A-375; test: MITF: Counter assay: A375 proliferation Measured in Cell-Based System Using Plate Reader - 2084-03_Inhibitor_Dose_DryPowder_Activity. [Related pubchem assays (depositor defined):AID488944]; type: functional; details: Homo sapiens
[37] = tested on: A-375; test: proliferation inhibition in MITF-low A375 cells – cell-based, cherry-pick samples, set 2, counter-screen for MITF modulator project, dose response (AID 540335); type: functional; details: Homo sapiens

T4 sequence (P63165 whole entry, the tested form may be a part): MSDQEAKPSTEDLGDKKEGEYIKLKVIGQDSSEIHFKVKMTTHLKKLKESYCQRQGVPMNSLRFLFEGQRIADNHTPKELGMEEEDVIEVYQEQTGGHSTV
T2 sequence (P51452 whole entry): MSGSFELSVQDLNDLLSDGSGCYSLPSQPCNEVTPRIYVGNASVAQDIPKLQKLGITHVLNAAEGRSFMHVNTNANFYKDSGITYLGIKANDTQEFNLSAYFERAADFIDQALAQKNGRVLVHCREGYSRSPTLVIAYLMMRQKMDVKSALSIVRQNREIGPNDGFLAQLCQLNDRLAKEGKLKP
Chain of Cystic fibrosis transmembrane conductance regulator/Golgi-associated PDZ and coiled-coil motif-containing protein (P13569 whole entry, other chains not shown): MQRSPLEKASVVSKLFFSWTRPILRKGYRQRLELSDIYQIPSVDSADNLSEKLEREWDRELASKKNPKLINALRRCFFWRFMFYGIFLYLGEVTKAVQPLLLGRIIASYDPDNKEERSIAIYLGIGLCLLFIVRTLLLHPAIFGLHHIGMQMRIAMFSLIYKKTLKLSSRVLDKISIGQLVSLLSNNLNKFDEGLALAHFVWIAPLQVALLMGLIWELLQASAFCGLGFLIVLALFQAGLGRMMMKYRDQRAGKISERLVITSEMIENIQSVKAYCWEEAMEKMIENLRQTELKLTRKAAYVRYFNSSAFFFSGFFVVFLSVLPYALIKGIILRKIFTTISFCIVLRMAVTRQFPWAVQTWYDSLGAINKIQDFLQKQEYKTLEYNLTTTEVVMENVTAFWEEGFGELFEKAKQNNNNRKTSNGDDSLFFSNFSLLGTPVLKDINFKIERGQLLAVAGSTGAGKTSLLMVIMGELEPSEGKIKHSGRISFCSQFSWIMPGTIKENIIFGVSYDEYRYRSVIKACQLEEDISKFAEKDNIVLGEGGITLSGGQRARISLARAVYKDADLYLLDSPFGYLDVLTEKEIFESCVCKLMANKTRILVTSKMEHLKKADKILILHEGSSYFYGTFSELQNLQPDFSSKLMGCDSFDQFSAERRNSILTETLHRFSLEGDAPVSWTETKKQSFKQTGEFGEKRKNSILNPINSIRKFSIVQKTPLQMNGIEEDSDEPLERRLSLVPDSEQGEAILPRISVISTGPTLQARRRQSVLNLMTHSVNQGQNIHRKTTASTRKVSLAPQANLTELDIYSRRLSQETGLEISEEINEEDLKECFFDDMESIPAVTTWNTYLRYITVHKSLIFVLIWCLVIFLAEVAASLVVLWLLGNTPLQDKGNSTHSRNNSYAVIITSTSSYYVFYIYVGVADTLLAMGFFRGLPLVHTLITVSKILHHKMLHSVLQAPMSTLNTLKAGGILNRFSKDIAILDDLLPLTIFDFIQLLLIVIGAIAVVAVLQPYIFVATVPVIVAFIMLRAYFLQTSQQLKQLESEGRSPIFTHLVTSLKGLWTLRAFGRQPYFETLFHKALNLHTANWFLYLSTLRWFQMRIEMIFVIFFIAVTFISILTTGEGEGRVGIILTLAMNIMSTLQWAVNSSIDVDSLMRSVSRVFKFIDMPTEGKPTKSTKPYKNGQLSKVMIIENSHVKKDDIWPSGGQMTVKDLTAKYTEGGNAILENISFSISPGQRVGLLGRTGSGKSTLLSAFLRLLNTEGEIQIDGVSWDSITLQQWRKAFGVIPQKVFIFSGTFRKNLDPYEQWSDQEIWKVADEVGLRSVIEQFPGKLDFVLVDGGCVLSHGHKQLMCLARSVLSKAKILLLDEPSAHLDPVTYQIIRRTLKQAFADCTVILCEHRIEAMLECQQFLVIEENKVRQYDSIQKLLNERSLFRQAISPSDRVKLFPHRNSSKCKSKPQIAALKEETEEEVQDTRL
Chain of Hexokinase-1 (P19367 whole entry): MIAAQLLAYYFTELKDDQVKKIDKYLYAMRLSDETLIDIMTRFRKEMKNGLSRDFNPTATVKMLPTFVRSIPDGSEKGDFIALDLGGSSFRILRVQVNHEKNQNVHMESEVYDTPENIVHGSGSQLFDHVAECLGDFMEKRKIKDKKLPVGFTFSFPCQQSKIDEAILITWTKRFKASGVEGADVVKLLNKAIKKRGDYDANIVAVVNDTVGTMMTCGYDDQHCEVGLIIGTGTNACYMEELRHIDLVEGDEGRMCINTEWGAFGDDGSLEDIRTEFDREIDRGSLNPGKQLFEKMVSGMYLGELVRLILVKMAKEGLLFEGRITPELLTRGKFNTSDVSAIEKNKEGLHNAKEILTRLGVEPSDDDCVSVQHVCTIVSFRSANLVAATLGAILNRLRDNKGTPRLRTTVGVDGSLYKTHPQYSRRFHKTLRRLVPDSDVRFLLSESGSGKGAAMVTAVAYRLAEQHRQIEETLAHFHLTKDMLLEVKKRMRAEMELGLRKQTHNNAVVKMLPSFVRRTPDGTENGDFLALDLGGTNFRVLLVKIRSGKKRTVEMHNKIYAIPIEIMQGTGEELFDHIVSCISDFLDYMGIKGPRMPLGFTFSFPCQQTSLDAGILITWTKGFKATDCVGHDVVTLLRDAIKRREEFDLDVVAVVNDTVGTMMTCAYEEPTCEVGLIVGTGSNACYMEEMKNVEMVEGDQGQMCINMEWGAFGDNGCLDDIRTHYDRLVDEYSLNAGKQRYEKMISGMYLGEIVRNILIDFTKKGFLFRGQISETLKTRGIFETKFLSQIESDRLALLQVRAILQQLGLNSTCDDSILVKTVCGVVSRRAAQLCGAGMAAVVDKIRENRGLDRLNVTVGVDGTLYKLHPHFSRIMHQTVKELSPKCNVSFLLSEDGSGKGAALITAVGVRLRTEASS
Chain of G-protein coupled receptor 55 (Q9Y2T6 whole entry): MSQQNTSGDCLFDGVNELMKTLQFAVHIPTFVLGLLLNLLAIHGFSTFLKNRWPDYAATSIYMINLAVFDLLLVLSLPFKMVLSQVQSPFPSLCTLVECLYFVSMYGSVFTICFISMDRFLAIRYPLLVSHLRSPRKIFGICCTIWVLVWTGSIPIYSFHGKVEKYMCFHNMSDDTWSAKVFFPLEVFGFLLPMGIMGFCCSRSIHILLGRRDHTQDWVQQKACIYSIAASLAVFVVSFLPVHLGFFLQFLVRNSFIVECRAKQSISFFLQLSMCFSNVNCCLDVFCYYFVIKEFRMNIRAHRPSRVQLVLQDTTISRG
Chain of Nonstructural protein 1 (Q194T2 whole entry): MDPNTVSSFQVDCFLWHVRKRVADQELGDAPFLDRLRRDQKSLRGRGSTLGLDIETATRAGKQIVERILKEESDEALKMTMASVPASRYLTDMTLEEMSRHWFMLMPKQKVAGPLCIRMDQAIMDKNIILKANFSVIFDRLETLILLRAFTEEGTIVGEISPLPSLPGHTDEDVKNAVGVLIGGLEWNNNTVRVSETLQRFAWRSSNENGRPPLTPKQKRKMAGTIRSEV
Chain of Genome polyprotein (P29990 2492-3391 limits assumed): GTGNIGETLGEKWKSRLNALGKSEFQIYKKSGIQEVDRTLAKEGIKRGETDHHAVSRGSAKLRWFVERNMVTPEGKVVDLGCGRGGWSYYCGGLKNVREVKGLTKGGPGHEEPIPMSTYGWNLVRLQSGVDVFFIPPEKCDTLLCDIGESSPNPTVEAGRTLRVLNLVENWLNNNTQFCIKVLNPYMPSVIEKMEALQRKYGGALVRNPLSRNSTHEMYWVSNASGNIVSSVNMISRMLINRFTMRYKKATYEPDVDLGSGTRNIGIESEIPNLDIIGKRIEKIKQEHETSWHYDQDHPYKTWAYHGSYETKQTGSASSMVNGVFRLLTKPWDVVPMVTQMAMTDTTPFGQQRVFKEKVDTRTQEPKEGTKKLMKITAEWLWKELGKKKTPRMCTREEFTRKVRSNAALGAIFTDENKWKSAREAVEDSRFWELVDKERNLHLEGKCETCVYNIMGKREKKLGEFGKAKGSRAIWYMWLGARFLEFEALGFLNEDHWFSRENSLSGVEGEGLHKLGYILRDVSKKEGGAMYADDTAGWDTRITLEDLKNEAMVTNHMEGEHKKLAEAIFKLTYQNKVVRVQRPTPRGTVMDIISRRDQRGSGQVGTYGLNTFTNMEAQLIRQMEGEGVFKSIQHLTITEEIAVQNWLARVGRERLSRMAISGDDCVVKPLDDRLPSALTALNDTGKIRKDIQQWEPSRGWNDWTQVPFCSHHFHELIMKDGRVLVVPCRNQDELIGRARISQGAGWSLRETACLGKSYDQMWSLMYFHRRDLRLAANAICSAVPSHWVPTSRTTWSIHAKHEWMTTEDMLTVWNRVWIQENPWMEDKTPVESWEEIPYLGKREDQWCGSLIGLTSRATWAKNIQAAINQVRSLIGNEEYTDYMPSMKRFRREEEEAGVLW
Chain of DNA topoisomerase (A0A2S9PM60 whole entry): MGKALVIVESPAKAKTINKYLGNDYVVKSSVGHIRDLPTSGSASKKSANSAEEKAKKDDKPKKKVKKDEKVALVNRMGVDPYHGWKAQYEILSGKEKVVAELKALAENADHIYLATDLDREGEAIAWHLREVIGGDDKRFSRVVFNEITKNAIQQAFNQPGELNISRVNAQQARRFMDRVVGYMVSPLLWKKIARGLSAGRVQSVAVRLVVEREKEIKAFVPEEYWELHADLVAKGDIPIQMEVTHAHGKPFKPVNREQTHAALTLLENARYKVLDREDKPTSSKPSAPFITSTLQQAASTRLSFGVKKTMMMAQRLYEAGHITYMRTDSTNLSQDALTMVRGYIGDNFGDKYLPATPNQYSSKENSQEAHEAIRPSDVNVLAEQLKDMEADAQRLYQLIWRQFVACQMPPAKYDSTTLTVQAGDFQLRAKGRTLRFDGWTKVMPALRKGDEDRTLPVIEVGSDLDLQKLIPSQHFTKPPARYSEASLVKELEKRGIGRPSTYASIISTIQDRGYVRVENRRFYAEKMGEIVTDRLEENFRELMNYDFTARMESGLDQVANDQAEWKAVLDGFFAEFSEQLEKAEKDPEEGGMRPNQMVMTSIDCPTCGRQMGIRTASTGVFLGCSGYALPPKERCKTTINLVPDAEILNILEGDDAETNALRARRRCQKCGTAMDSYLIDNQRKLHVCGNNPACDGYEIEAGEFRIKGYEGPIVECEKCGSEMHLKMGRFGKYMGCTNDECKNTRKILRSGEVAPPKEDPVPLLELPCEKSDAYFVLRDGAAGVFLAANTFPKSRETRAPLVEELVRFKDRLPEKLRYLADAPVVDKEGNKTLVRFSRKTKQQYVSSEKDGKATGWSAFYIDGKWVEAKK

c1nc2sc3c(c2c2nnnn12)CCCC3
AC50 [1]: 63.2 µM (active)

O=C(c1ccccc1)c1c2c(cc3sc4ccccc4[n+]13)-c1cccc3cccc-2c13
EC50 [2]: 0.06 µM (active) | IC50 [3]: 91.3 µM (inactive) | AC50 [4]: 72.6 µM (active) | IC50 [5]: 15.1 µM (inactive) | AC50 [6]: 2.05 µM (active) | EC50 [7]: > 32 µM (inactive)

O=[N+]([O-])c1cccc(Cl)c1Cl
AC50 [8]: 50.1 µM (inconclusive)

O=C(Nc1ccc2c(c1)CCO2)c1ccc([N+](=O)[O-])o1
IC50 [9]: 45.6 µM (inactive) | IC50 [10]: 33.8 µM (inactive) | IC50 [11]: 59.5 µM (inactive)

NC1CCN(c2c(F)cc3c(=O)c(C(=O)O)cn(C4CC4)c3c2Cl)C1 (configuration not stated) [CLINAFLOXACIN]
AC50 [12]: 0.816 µM (active) | EC50 [13]: 0.142 µM (active) | EC50 [14]: 0.115 µM (active) | AC50 [15]: 41.4 µM (active) | AC50 [16]: 4.49 µM (active) | IC50 [17]: 0.15 µM (active)

COc1cc(/C=C2\SC(=O)N(Cc3ccc(Cl)cc3)C2=O)cc([N+](=O)[O-])c1O
IC50 [18]: 3.54 µM (active) | IC50 [19]: > 158 µM (not active) | IC50 [20]: 26.9 µM (active) | IC50 [21]: > 66.6 µM (inactive) | IC50 [22]: > 50 µM (active) | IC50 [23]: 36.7 µM (inactive) | IC50 [24]: 4.68 µM (active) | IC50 [25]: 4.6 µM (active) | CC50 [26]: > 40 µM (active) | IC50 [27]: 67.5 µM (active) | IC50 [28]: 14.9 µM (active) | IC50 [29]: 6.99 µM (active)

Cc1ccc(-c2c(C#N)c(N)n(-c3ccc(Cl)cc3)c(=O)c2C#N)cc1
EC50 [30]: < 3 µM (active) | AC50 [31]: 20.4 µM (active) | EC50 [32]: 9.21 µM (active)

O=C(NC1C(=O)N(CCN2CCOCC2)c2ccccc21)c1ccccc1 (configuration not stated)
IC50 [33]: > 80 µM (inactive) | IC50 [34]: > 80 µM (inactive)

CSc1ccccc1OCc1cc(C(=O)NCCCc2ccccc2)no1
AC50 [35]: 17 µM (active)

CSC(=N)N/N=C/c1ccc2c(c1)OCO2
AC50 [36]: > 35 µM (active) | AC50 [37]: > 35 µM (active)
